{"source": "paper PMC5667507", "about": "“A novel ^18F-labelled high affinity agent for PET imaging of the translocator protein” (Chemical Science, 2015)", "key": {"[1]": {"biological_target": "T1, TSPO (Mus musculus, UniProt P50637)", "T1 construct": "The brain from a mouse bearing an intracranial G7 tumour was used; from tissue; host or cells: 20 µm coronal cryosections of CD1 nude mouse brain with an intracranial G7 human glioblastoma xenograft", "T1 sequence (P50637 whole entry)": "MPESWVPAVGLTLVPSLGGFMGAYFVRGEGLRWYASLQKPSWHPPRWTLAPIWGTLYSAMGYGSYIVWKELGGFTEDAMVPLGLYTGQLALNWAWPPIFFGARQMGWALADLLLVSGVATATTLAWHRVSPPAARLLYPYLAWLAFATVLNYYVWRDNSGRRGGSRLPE", "assay": "In vitro autoradiography, brain sections of G7 orthotopic mouse model of human glioblastoma", "type": "binding", "details": "contralateral region; 3 nM tracer, 10 µM PK11195", "source_text": "(§1) An initial investigation of the potential of [^18F]-AB5186 6 to bind to TSPO in brain involved in vitro autoradiography using a G7 orthotopic mouse model of human glioblastoma.[25] Autoradiography allows the distribution of a radiolabelled compound to be visualised in intact biological tissue sections.[26] […] Displacement of [^18F]-AB5186 6 by the TSPO ligand PK11195 confirms the in vitro specificity of the tracer for TSPO in brain tissue.\n(§2) The fraction containing 18F-AB5186 6 was concentrated in vacuo and then reconstituted in 2 mL of a 10% ethanol/0.9% saline solution. Passing the sample through a pre-treated 13 mm 0.2 µm filter then completed formulation of the radiotracer. The identity of the radiolabelled product was confirmed by co-injection with a cold sample of AB5186 6. Quality control was performed by analytical HPLC, using a Phenomenex Synergi 4 µm Hydro-RP 80A (150 × 4.60 mm) column and the mobile phase described above for the semi-prep HPLC purification step. Radiochemical purity was determined by measuring the area under the peaks on the chromatogram, and specific activity was calculated using a standard curve.\n(§3) 8. Radio-HPLC chromatogram of [18F]-AB5186 (6) after purification\n(§4) CD1 nude mice had […] of either G7 or U87MG-Luc2 cultured cells implanted intracranially into the caudate nucleus using standard stereotactic procedures. Successful implantation of U87MG-Luc2 tumours was confirmed by performing IVIS® scans approximately two weeks following the procedure. Animals were used for ex vivo autoradiography and PET imaging studies 21–30 days post tumour implantation. Prior to any procedure mice were anaesthetised using inhaled isoflurane (in medical oxygen; induction 5.0%; maintenance 2.0–3.0%). Body temperature was maintained using a heating pad.\n(§5) 10. In vitro Autoradiography5 Methodology\n(§6) The brain from a mouse bearing an intracranial G7 tumour was used. […]\n(§7) temperature. Non-specific binding was determined in adjacent sections by incubating with [18F]- AB5186 6 in the presence of 10 µM PK11195 (Tocris, UK). […]"}, "[2]": {"test_system": "TSPO", "assay": "In vitro autoradiography, brain sections of G7 orthotopic mouse model of human glioblastoma", "type": "binding", "source_text": "as §1, §2, §3, §4, §5, §6, §7"}}}
{"compound": "CCN(CC)C(=O)c1nc2ccccc2c(-c2ccccc2)c1C[18F]", "note": "[[^18F]-AB5186 6]", "values": [{"measurement": "displacement of tracer binding by excess unlabelled PK11195", "setting": "[1]", "result": 23, "unit": "%"}, {"measurement": "total binding, tumour tissue compared to contralateral side", "setting": "[2]; in vitro autoradiograms, G7 xenograft", "result": "markedly increased"}, {"measurement": "displacement of tracer binding by excess unlabelled PK11195", "setting": "[2]; tumour tissue, 3 nM tracer, 10 µM PK11195", "result": 76, "unit": "%"}]}
